# According to article PMC9525273 (Nature Communications, 2022):
# “And” between values parts separate entries of the source, which are not always exact repeats. Identical values can stand only once. Like-named read-outs stand apart in the source and are kept apart here.
# Key:
# Dd2-B2 parasites = experiment: P. falciparum proliferation assay (72 h, flow cytometry, SYBR Green I/MitoTracker); assay type: cell-based; conditions: Plasmodium falciparum, DD2, read-out: IC50 value
# Protocol: (§1) Two types of parasite proliferation assays were employed in this study, with both yielding highly consistent results. For the NF54-based lines and Dd2-B2-PfATP4^G358S and its parent, assays were initiated with cultures containing predominantly ring-stage parasites with a parasitaemia of 0.3% and a haematocrit of 1%. All assays using NF54 were performed in culture media containing 10% O + human serum. The duration of the assays was 72 h and the concentration of DMSO was <0.5% (v/v). Serial dilutions of the test compounds were performed using a Tecan D300e digital dispenser, with parasite cultures added manually. Parasite survival was assessed by flow cytometry on an Intellicyt iQue3 (Essen Bioscience), with 1× SYBR Green I (Invitrogen) and 200 nM MitoTracker Deep Red FM (Invitrogen) used to stain the nucleus and the mitochondria in live parasites, respectively. The gating strategy used to quantify parasite survival, performed using FlowJo version 10 (FlowJo LLC.), is illustrated in Supplementary Fig. 9. IC50 and IC90 values were calculated by linear interpolation of the dose-response data.
# [1] = test system: Dd2-B2-PfATP4^G358S parasites; experiment: as above; assay type: cell-based; conditions: Plasmodium falciparum; Dd2-B2-PfATP4G358S; mean ± SEM
# Protocol: as §1
# [2] = test system: isolated Dd2-Polδ P. falciparum trophozoites; experiment: [Na+]cyt measurement (SBFI), Na+ dysregulation; assay type: cell-based, Plasmodium falciparum; design: Final [Na+]cyt reached: unit not given here; conditions: for Final [Na+]cyt reached: Dd2-Polδ; for IC50: Plasmodium falciparum
# Protocol: (§2) The ratio of the fluorescence intensity recorded at 340 nm and 380 nm (with an emission wavelength of 515 nm) was converted to [Na^+]cyt using a calibration procedure that entailed suspending parasites in solutions of varying [Na^+] containing ionophores. Fluorescence measurements and calibrations were performed at 37 °C, either with individual 1 mL suspensions using a PerkinElmer LS 50B fluorescence spectrometer (for resting [Na^+]cyt measurements for which the data are shown in Supplementary Fig. 7) or in 96-well plates using a Tecan Infinite M1000 PRO plate reader with i-control (version 1.12) software (all other [Na^+]cyt measurements).
# [3] = test system: isolated Dd2-Polδ-PfATP4^G358S P. falciparum trophozoites; experiment: [Na+]cyt measurement (SBFI), Na+ dysregulation; assay type: cell-based, Plasmodium falciparum; design: Final [Na+]cyt reached: unit not given here; conditions: for IC50: read-out: IC50 for Na+ dysregulation
# Protocol: as §2
structure (smiles),measurement,setting,value
N#Cc1cc(NC(=O)[C@H]2c3ccccc3C(=O)N(CC(F)(F)F)[C@@H]2c2cccnc2)ccc1F [(+)-SJ733],IC50,Dd2-B2 parasites,122 ± 7 nM
same,IC50,[1],23000 ± 3200 nM
same,Final [Na+]cyt reached,"[2]; [(+)-SJ733] 9.8 nM, MEAN",24.0
same,Final [Na+]cyt reached,"[2]; [(+)-SJ733] 19.5 nM, MEAN",33.0
same,Final [Na+]cyt reached,"[2]; [(+)-SJ733] 39.1 nM, MEAN",53.8
same,Final [Na+]cyt reached,"[2]; [(+)-SJ733] 78.1 nM, MEAN",78.4
same,Final [Na+]cyt reached,"[2]; [(+)-SJ733] 156.3 nM, MEAN",97.5
same,Final [Na+]cyt reached,"[2]; [(+)-SJ733] 156.3 nM, single experiments",122.9 and 77.5 and 89.5 and 99.9
same,Final [Na+]cyt reached,"[2]; [(+)-SJ733] 312.5 nM, MEAN",102.1
same,Final [Na+]cyt reached,"[2]; [(+)-SJ733] 312.5 nM, single experiments",131.1 and 85.2 and 96.4 and 95.7
same,Final [Na+]cyt reached,"[2]; [(+)-SJ733] 625 nM, MEAN",112.5
same,Final [Na+]cyt reached,"[2]; [(+)-SJ733] 625 nM, single experiments",132.7 and 104.6 and 109.2 and 103.6
same,Final [Na+]cyt reached,"[2]; [(+)-SJ733] 2500 nM, MEAN",112.4
same,Final [Na+]cyt reached,"[2]; [(+)-SJ733] 2500 nM, single experiments",123.5 and 114.1 and 104.4 and 107.6
same,Final [Na+]cyt reached,"[2]; [(+)-SJ733] 5000 nM, MEAN",111.0
same,Final [Na+]cyt reached,"[2]; [(+)-SJ733] 5000 nM, single experiments",138.3 and 95.8 and 115.2 and 94.7
same,Final [Na+]cyt reached,"[2]; [(+)-SJ733] 10000 nM, MEAN",115.2
same,Final [Na+]cyt reached,"[2]; [(+)-SJ733] 10000 nM, single experiments",139.1 and 108.5 and 119.1 and 94.2
same,Final [Na+]cyt reached,"[2]; [(+)-SJ733] 20000 nM, MEAN",108.1
same,Final [Na+]cyt reached,"[2]; [(+)-SJ733] 20000 nM, single experiments",139.5 and 98.0 and 111.1 and 84.0
same,IC50,"[2]; DD2, 1.5 h, pH 7.1, Dd2-Polδ, ~90 min exposure, 37 °C, pH 7.1, mean ± SEM, read-out: IC50 for Na+ dysregulation",55 ± 15 nM
same,IC50,"[2]; DD2, Dd2-Polδ, MEAN, source data of Table 1 (nM there), read-out: IC50 for Na+ dysregulation, MEAN",55 nM
same,difference in potency between the drugs,"[2]; vs cipargamin, [Na+]cyt assays (P. falciparum, T. gondii) and P. falciparum proliferation assays",> 6 fold
same,Final [Na+]cyt reached,"[3]; Dd2-Polδ-PfATP4G358S, [(+)-SJ733] 9.8 nM, MEAN",28.4
same,Final [Na+]cyt reached,"[3]; Dd2-Polδ-PfATP4G358S, [(+)-SJ733] 9.8 nM, single experiments",25.4 and 25.6 and 34.3
same,Final [Na+]cyt reached,"[3]; Dd2-Polδ-PfATP4G358S, [(+)-SJ733] 19.5 nM, MEAN",28.2
same,Final [Na+]cyt reached,"[3]; Dd2-Polδ-PfATP4G358S, [(+)-SJ733] 19.5 nM, single experiments",24.8 and 26.3 and 33.5
same,Final [Na+]cyt reached,"[3]; Dd2-Polδ-PfATP4G358S, [(+)-SJ733] 39.1 nM, MEAN",28.7
same,Final [Na+]cyt reached,"[3]; Dd2-Polδ-PfATP4G358S, [(+)-SJ733] 39.1 nM, single experiments",26.5 and 26.8 and 32.9
same,Final [Na+]cyt reached,"[3]; Dd2-Polδ-PfATP4G358S, [(+)-SJ733] 78.1 nM, MEAN",29.0
same,Final [Na+]cyt reached,"[3]; Dd2-Polδ-PfATP4G358S, [(+)-SJ733] 78.1 nM, single experiments",26.6 and 27.0 and 33.4
same,Final [Na+]cyt reached,"[3]; Dd2-Polδ-PfATP4G358S, [(+)-SJ733] 156.3 nM, MEAN",28.6
same,Final [Na+]cyt reached,"[3]; Dd2-Polδ-PfATP4G358S, [(+)-SJ733] 156.3 nM, single experiments",25.8 and 27.2 and 32.8
same,Final [Na+]cyt reached,"[3]; Dd2-Polδ-PfATP4G358S, [(+)-SJ733] 312.5 nM, MEAN",25.7
same,Final [Na+]cyt reached,"[3]; Dd2-Polδ-PfATP4G358S, [(+)-SJ733] 312.5 nM, single experiments",25.5 and 26.1 and 32.5 and 18.8
same,Final [Na+]cyt reached,"[3]; Dd2-Polδ-PfATP4G358S, [(+)-SJ733] 625 nM, MEAN",26.8
same,Final [Na+]cyt reached,"[3]; Dd2-Polδ-PfATP4G358S, [(+)-SJ733] 625 nM, single experiments",26.0 and 26.8 and 34.1 and 20.2
same,Final [Na+]cyt reached,"[3]; Dd2-Polδ-PfATP4G358S, [(+)-SJ733] 2500 nM, MEAN",28.2
same,Final [Na+]cyt reached,"[3]; Dd2-Polδ-PfATP4G358S, [(+)-SJ733] 2500 nM, single experiments",27.1 and 27.5 and 36.9 and 21.3
same,Final [Na+]cyt reached,"[3]; Dd2-Polδ-PfATP4G358S, [(+)-SJ733] 5000 nM, MEAN",30.8
same,Final [Na+]cyt reached,"[3]; Dd2-Polδ-PfATP4G358S, [(+)-SJ733] 5000 nM, single experiments",29.9 and 28.6 and 41.3 and 23.6
same,Final [Na+]cyt reached,"[3]; Dd2-Polδ-PfATP4G358S, [(+)-SJ733] 10000 nM, MEAN",38.0
same,Final [Na+]cyt reached,"[3]; Dd2-Polδ-PfATP4G358S, [(+)-SJ733] 10000 nM, single experiments",34.4 and 33.8 and 55.9 and 28.0
same,Final [Na+]cyt reached,"[3]; Dd2-Polδ-PfATP4G358S, [(+)-SJ733] 20000 nM, MEAN",58.1
same,Final [Na+]cyt reached,"[3]; Dd2-Polδ-PfATP4G358S, [(+)-SJ733] 40000 nM, MEAN",76.7
same,Final [Na+]cyt reached,"[3]; Dd2-Polδ-PfATP4G358S, [(+)-SJ733] 40000 nM, single experiments",88.7 and 92.6 and 48.8
same,IC50,"[3]; Dd2-Polδ-PfATP4G358S, single experiments, source data of Table 1 (nM there)",> 20000 nM
same,IC50,"[3]; Plasmodium falciparum, DD2, 1.5 h, pH 7.1, Dd2-Polδ-PfATP4G358S, ~90 min exposure, 37 °C, pH 7.1",> 10000 nM
